Measured values reported in ChEMBL document CHEMBL3102853, “Carbonic anhydrase inhibitors. Synthesis, and molecular structure of novel series N-substituted N'-(2-arylmethylthio-4-chloro-5-methylbenzenesulfonyl)guanidines and their inhibition of human cytosolic isozymes I and II and the transmembrane tumor-associated isozymes IX and XII” (Eur J Med Chem, 2014).
The source made the active and inactive calls. No cut-off for these calls is given here.

What was measured:
MOLT-4 = assay: Cytotoxicity against human MOLT4 cells at 10 uM; assay type: functional; settings: read-out: GI
SNB-75 = assay: Cytotoxicity against human SNB75 cells at 10 uM; assay type: functional; settings: read-out: GI
HOP-92 = assay: Cytotoxicity against human HOP92 cells at 10 uM; assay type: functional; settings: read-out: GI
K562 = assay: Cytotoxicity against human K562 cells at 10 uM; assay type: functional; settings: read-out: GI
SF-268 = assay: Cytotoxicity against human SF268 cells at 10 uM; assay type: functional; settings: read-out: GI
SR = assay: Cytotoxicity against human SR cells at 10 uM; assay type: functional; settings: read-out: GI
SK-MEL-2 = assay: Cytotoxicity against human SK-MEL-2 cells at 10 uM; assay type: functional; settings: read-out: GI
A498 = assay: Cytotoxicity against human A498 cells at 10 uM; assay type: functional; settings: read-out: GI
PC-3 = assay: Cytotoxicity against human PC3 cells at 10 uM; assay type: functional; settings: read-out: GI
[1] = Cytotoxicity against human Hs 578T cells at 10 uM; assay type: functional; settings: read-out: GI
DU-145 = assay: Cytotoxicity against human DU145 cells at 10 uM; assay type: functional
RPMI-8226 = assay: Cytotoxicity against human RPMI8226 cells at 10 uM; assay type: functional; settings: read-out: GI
A549 = assay: Cytotoxicity against human A549 cells at 10 uM; assay type: functional; settings: read-out: GI
SW-620 = assay: Cytotoxicity against human SW620 cells at 10 uM; assay type: functional
HL-60(TB) = assay: Cytotoxicity against human HL-60(TB) cells at 10 uM; assay type: functional; settings: read-out: GI
MDA-MB-468 = assay: Cytotoxicity against human MDA-MB-468 cells at 10 uM; assay type: functional; settings: read-out: GI
NCI/ADR-RES = assay: Cytotoxicity against human NCI-ADR-RES cells at 10 uM; assay type: functional
KM12 = assay: Cytotoxicity against human KM12 cells at 10 uM; assay type: functional; settings: read-out: GI
NCI-H460 = assay: Cytotoxicity against human NCI-H460 cells at 10 uM; assay type: functional; settings: read-out: GI
T47D = assay: Cytotoxicity against human T47D cells at 10 uM; assay type: functional; settings: read-out: GI
HT-29 = assay: Cytotoxicity against human HT-29 cells at 10 uM; assay type: functional; settings: read-out: GI
UACC-62 = assay: Cytotoxicity against human UACC62 cells at 10 uM; assay type: functional; settings: read-out: GI
OVCAR-3 = assay: Cytotoxicity against human OVCAR3 cells at 10 uM; assay type: functional
MCF7 = assay: Cytotoxicity against human MCF7 cells at 10 uM; assay type: functional; settings: read-out: GI
LOX IMVI = assay: Cytotoxicity against human LOXIMVI cells at 10 uM; assay type: functional; settings: read-out: GI
Carbonic anhydrase 9 = Carbonic anhydrase 9 (Homo sapiens, UniProt Q16790)

SMILES	inhibition of growth at 10 µM (MOLT-4)	inhibition of growth at 10 µM (SNB-75)	inhibition of growth at 10 µM (HOP-92)	inhibition of growth at 10 µM (K562)	inhibition of growth at 10 µM (SF-268)	inhibition of growth at 10 µM (SR)	inhibition of growth at 10 µM (SK-MEL-2)	inhibition of growth at 10 µM (A498)	inhibition of growth at 10 µM (PC-3)	inhibition of growth at 10 µM [1]	inhibition of growth at 10 µM (RPMI-8226)	inhibition of growth at 10 µM (A549)	inhibition of growth at 10 µM (HL-60(TB))	inhibition of growth at 10 µM (MDA-MB-468)	growth inhibition (GI) (NCI/ADR-RES)	inhibition of growth at 10 µM (KM12)	inhibition of growth at 10 µM (NCI-H460)	inhibition of growth at 10 µM (T47D)	inhibition of growth at 10 µM (HT-29)	inhibition of growth at 10 µM (UACC-62)	other results
Cc1cc(S(=O)(=O)NC(=N)Nc2cccc(S(N)(=O)=O)c2)c(SCc2ccc(C(F)(F)F)cc2)cc1Cl	51%	53%	37%	48%	19%	54%	27%	13%	68%	13%	39%	36%	33%	26%	inactive	34%	19%	35%	20%	35%	inhibition of growth at 10 µM (DU-145; read-out: GI): 6%; inhibition of growth at 10 µM (SW-620; read-out: GI): 5%; inhibition of growth at 10 µM (OVCAR-3; read-out: GI): 33%; inhibition of growth at 10 µM (MCF7): 51%; inhibition of growth at 10 µM (LOX IMVI): 20%
Cc1cc(S(=O)(=O)NC(=N)Nc2nnc(S(N)(=O)=O)s2)c(SCc2ccc(C(F)(F)F)cc2)cc1Cl	–	–	–	–	–	–	–	–	–	–	–	–	–	–	–	–	–	–	–	–	Ki (Carbonic anhydrase 9): 10.3 nM
Cc1cc(S(=O)(=O)NC(=N)Nc2ccccc2S(N)(=O)=O)c(SCc2cccc3ccccc23)cc1Cl	–	–	–	–	–	–	–	–	–	–	–	–	–	–	–	–	–	–	–	–	Ki (Carbonic anhydrase 9): 138 nM
Cc1cc(S(=O)(=O)NC(=N)Nc2cccc(S(N)(=O)=O)c2)c(SCc2ccccc2)cc1Cl	34%	35%	46%	22%	12%	15%	14%	16%	45%	17%	23%	16%	16%	32%	inactive	5%	3%	13%	8%	30%	growth inhibition (GI) (DU-145): inactive; growth inhibition (GI) (SW-620): inactive; growth inhibition (GI) (OVCAR-3): inactive; inhibition of growth at 10 µM (MCF7): 21%; inhibition of growth at 10 µM (LOX IMVI): 15%
